According to US8952024B2, “Herbicidal pyrimidone derivatives” (E I du Pont de Nemours and Company, priority 2009, dated 2015):

Experiments:
Format in all cases: in vivo
[1] = test system: windgrass (Apera spica-venti); experiment: Test B postemergence plant response; conditions: for Plant response rating, Windgrass: Postemergence
Procedure, shortened: (§1)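 Plants at the 1- to 4-leaf stage (2 to 18 cm tall), grown in pots of peat moss/vermiculite medium with wetting agent and starter nutrients, received postemergence applications of test chemicals. After 13 to 15 days in a greenhouse, injury was rated visually against untreated controls on a 0 (no effect) to 100 (complete control) scale.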

[2] = test system: canarygrass (Phalaris minor); experiment: Test B postemergence plant response
Procedure, shortened: as §1

[3] = test system: chickweed (Stellaria media); experiment: Test B postemergence plant response
Procedure, shortened: as §1

[4] = test system: blackgrass (Alopecurus myosuroides); experiment: Test B pre-/postemergence plant response; conditions: for Blackgrass plant response rating: 0 to 100 scale
Procedure, shortened: (§2)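 Visually scored on a 0 to 100 scale after 13 to 15 days in greenhouse versus controls. Treatments were preemergence on seeded loam/sand soil and postemergence on 1- to 4-leaf plants.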

[5] = test system: downy bromegrass (Bromus tectorum); experiment: Test B pre-/postemergence plant response; conditions: for Bromegrass, Downy plant response rating: 0 to 100 scale
Procedure, shortened: as §2

[6] = test system: Surinam grass (Brachiaria decumbens); experiment: Test B pre-/postemergence plant response; conditions: for Surinam Grass plant response rating: 0 to 100 scale
Procedure, shortened: as §2

[7] = test system: cocklebur (Xanthium strumarium); experiment: Test B pre-/postemergence plant response; conditions: for Cocklebur plant response rating: 0 to 100 scale
Procedure, shortened: as §2

[8] = test system: giant foxtail (Setaria faberii); experiment: Test B pre-/postemergence plant response; conditions: for Foxtail, Giant plant response rating: 0 to 100 scale
Procedure, shortened: as §2

corn (Zea mays) = experiment: Test B pre-/postemergence plant response; conditions: for Corn plant response rating: 0 to 100 scale
Procedure, shortened: as §2

[9] = test system: morningglory (Ipomoea coccinea); experiment: Test B pre-/postemergence plant response; conditions: for Morningglory plant response rating: 0 to 100 scale
Procedure, shortened: as §2

[10] = test system: pigweed (Amaranthus retroflexus); experiment: Test B pre-/postemergence plant response; conditions: for Pigweed plant response rating: 0 to 100 scale
Procedure, shortened: as §2

[11] = test system: Italian ryegrass (Lolium multiflorum); experiment: Test B pre-/postemergence plant response; conditions: for Ryegrass, Italian plant response rating: 0 to 100 scale
Procedure, shortened: as §2

wild oat (Avena fatua) = experiment: Test B pre-/postemergence plant response; conditions: for Oat, Wild plant response rating: 0 to 100 scale
Procedure, shortened: as §2

[12] = 62 g ai/ha, postemergence, 0 is no effect, 100 is complete control, 13 to 15 days
[13] = 31 g ai/ha, postemergence, scale 0 to 100, 0 is no effect, 100 is complete control
[14] = Postemergence, 125 g ai/ha, scale 0 to 100 (0 no effect, 100 complete control)
[15] = Postemergence, 250 g ai/ha, scale 0 to 100 (0 no effect, 100 complete control)
[16] = Preemergence, 31 g ai/ha, scale 0 to 100 (0 no effect, 100 complete control)
[17] = Preemergence, 62 g ai/ha, scale 0 to 100 (0 no effect, 100 complete control)
[18] = Preemergence, 125 g ai/ha, scale 0 to 100, 0 no effect, 100 complete control
[19] = Postemergence, 31 g ai/ha, 0 to 100 scale (0 no effect, 100 complete control)
[20] = Postemergence, 62 g ai/ha, scale 0 to 100 (0 no effect, 100 complete control)
[21] = Postemergence, 250 g ai/ha, scale 0 to 100 (0 no effect, 100 complete control), 13 to 15 days

COCCCn1c(-c2cc(F)cc(F)c2)ncc(C(=O)C2=C(O)CCCC2=O)c1=O [Compound 120]
Windgrass plant response rating (0 to 100 scale) [1, 12]: 80
Plant response rating, Windgrass ([1]; 125 g ai/ha, scale 0 to 100 (0 no effect, 100 complete control)): 90
Plant response rating, Canarygrass [2, 13]: 0
Canarygrass plant response rating (0 to 100 scale) [2, 12]: 30
Plant response rating, Canarygrass [2, 14]: 55
Plant response rating, Canarygrass [2, 15]: 55
Plant response rating, Chickweed [3, 13]: 60
Chickweed plant response rating (0 to 100 scale) [3, 12]: 75
Plant response rating, Chickweed [3, 14]: 85
Plant response rating, Chickweed [3, 15]: 100
Plant response rating, Blackgrass [4, 13]: 30
Blackgrass plant response rating (0 to 100 scale) [4, 12]: 30
Plant response rating, Blackgrass [4, 14]: 60
Plant response rating, Blackgrass [4, 15]: 60
Plant response rating, Blackgrass [4, 16]: 5
Plant response rating, Blackgrass [4, 17]: 50
Plant response rating, Blackgrass [4, 18]: 50
Blackgrass plant response rating ([4]; Preemergence, 250 g ai/ha): 50
Plant response rating, Bromegrass, Downy [5, 13]: 20
Bromegrass, Downy plant response rating (0 to 100 scale) [5, 12]: 60
Plant response rating, Bromegrass, Downy [5, 14]: 60
Plant response rating, Bromegrass, Downy [5, 15]: 80
Plant response rating, Bromegrass, Downy [5, 16]: 10
Plant response rating, Bromegrass, Downy [5, 17]: 30
Plant response rating, Bromegrass, Downy [5, 18]: 30
Bromegrass, Downy plant response rating ([5]; Preemergence, 250 g ai/ha): 85
Surinam Grass plant response rating (0 to 100 scale) [6, 12]: 85
Plant response rating, Surinam Grass [6, 14]: 100
Plant response rating, Surinam Grass [6, 15]: 100
Plant response rating, Surinam Grass [6, 16]: 100
Plant response rating, Surinam Grass [6, 17]: 100
Plant response rating, Surinam Grass [6, 18]: 100
Surinam Grass plant response rating ([6]; Preemergence, 250 g ai/ha): 100
Plant response rating, Cocklebur [7, 13]: 10
Cocklebur plant response rating (0 to 100 scale) [7, 12]: 15
Plant response rating, Cocklebur [7, 14]: 25
Plant response rating, Cocklebur [7, 15]: 80
Plant response rating, Cocklebur [7, 16]: 0
Plant response rating, Cocklebur [7, 17]: 35
Plant response rating, Cocklebur [7, 18]: 60
Cocklebur plant response rating ([7]; Preemergence, 250 g ai/ha): 98
Plant response rating, Foxtail, Giant [8, 13]: 75
Foxtail, Giant plant response rating (0 to 100 scale) [8, 12]: 80
Plant response rating, Foxtail, Giant [8, 14]: 85
Plant response rating, Foxtail, Giant [8, 15]: 98
Plant response rating, Foxtail, Giant [8, 16]: 75
Plant response rating, Foxtail, Giant [8, 17]: 98
Plant response rating, Foxtail, Giant [8, 18]: 98
Foxtail, Giant plant response rating ([8]; Preemergence, 250 g ai/ha): 100
Plant response rating, Corn (corn (Zea mays); [13]): 15
Corn plant response rating (0 to 100 scale) (corn (Zea mays); [12]): 20
Plant response rating, Corn (corn (Zea mays); [14]): 50
Plant response rating, Corn (corn (Zea mays); [15]): 75
Plant response rating, Corn (corn (Zea mays); [16]): 0
Plant response rating, Corn (corn (Zea mays); [18]): 25
Corn plant response rating (corn (Zea mays); Preemergence, 250 g ai/ha): 55
Plant response rating, Morningglory [9, 13]: 15
Morningglory plant response rating (0 to 100 scale) [9, 12]: 50
Plant response rating, Morningglory [9, 14]: 80
Plant response rating, Morningglory [9, 15]: 90
Plant response rating, Morningglory [9, 16]: 0
Plant response rating, Morningglory [9, 17]: 90
Plant response rating, Morningglory [9, 18]: 90
Morningglory plant response rating ([9]; Preemergence, 250 g ai/ha): 100
Plant response rating, Pigweed [10, 13]: 95
Pigweed plant response rating (0 to 100 scale) [10, 12]: 98
Plant response rating, Pigweed [10, 14]: 100
Plant response rating, Pigweed [10, 15]: 100
Plant response rating, Pigweed [10, 16]: 95
Plant response rating, Pigweed [10, 17]: 100
Plant response rating, Pigweed [10, 18]: 100
Pigweed plant response rating ([10]; Preemergence, 250 g ai/ha): 100
Ryegrass, Italian plant response rating (0 to 100 scale) [11, 12]: 40
Plant response rating, Ryegrass, Italian [11, 14]: 60
Plant response rating, Ryegrass, Italian [11, 15]: 80
Plant response rating, Ryegrass, Italian [11, 16]: 100
Plant response rating, Ryegrass, Italian [11, 17]: 100
Plant response rating, Ryegrass, Italian [11, 18]: 100
Ryegrass, Italian plant response rating ([11]; Preemergence, 250 g ai/ha): 100
Plant response rating, Oat, Wild (wild oat (Avena fatua); [13]): 50
Oat, Wild plant response rating (0 to 100 scale) (wild oat (Avena fatua); [12]): 80
Plant response rating, Oat, Wild (wild oat (Avena fatua); [14]): 80
Plant response rating, Oat, Wild (wild oat (Avena fatua); [15]): 95
Plant response rating, Oat, Wild (wild oat (Avena fatua); [16]): 0
Plant response rating, Oat, Wild (wild oat (Avena fatua); [17]): 10
Plant response rating, Oat, Wild (wild oat (Avena fatua); [18]): 65
Oat, Wild plant response rating (wild oat (Avena fatua); Preemergence, 250 g ai/ha): 65

CCc1ccc(-n2c(-c3ccccc3)ncc(C(=O)C3=C(O)CCCC3=O)c2=O)cc1 [Compound 219]
Plant response rating, Windgrass ([1]; 31 g ai/ha, 0 to 100 scale (0 no effect, 100 complete control)): 35
Plant response rating, Windgrass ([1]; 62 g ai/ha, scale 0 to 100 (0 no effect, 100 complete control)): 40
Plant response rating, Windgrass ([1]; 250 g ai/ha, scale 0 to 100 (0 no effect, 100 complete control), 13 to 15 days): 85
Plant response rating, Canarygrass [2, 19]: 35
Plant response rating, Canarygrass [2, 20]: 55
Plant response rating, Canarygrass [2, 14]: 55
Plant response rating, Canarygrass [2, 21]: 55
Plant response rating, Chickweed [3, 19]: 100
Plant response rating, Chickweed [3, 20]: 100
Plant response rating, Chickweed [3, 14]: 100
Plant response rating, Chickweed [3, 21]: 100
Plant response rating, Blackgrass [4, 19]: 50
Plant response rating, Blackgrass [4, 20]: 55
Plant response rating, Blackgrass [4, 14]: 55
Plant response rating, Blackgrass [4, 21]: 90
Plant response rating, Blackgrass [4, 16]: 30
Plant response rating, Blackgrass [4, 17]: 35
Plant response rating, Blackgrass [4, 18]: 40
Blackgrass plant response rating ([4]; Preemergence, 250 g ai/ha): 60
Plant response rating, Bromegrass, Downy [5, 19]: 45
Plant response rating, Bromegrass, Downy [5, 20]: 50
Plant response rating, Bromegrass, Downy [5, 14]: 80
Plant response rating, Bromegrass, Downy [5, 21]: 80
Plant response rating, Bromegrass, Downy [5, 16]: 0
Plant response rating, Bromegrass, Downy [5, 17]: 0
Plant response rating, Bromegrass, Downy [5, 18]: 10
Bromegrass, Downy plant response rating ([5]; Preemergence, 250 g ai/ha): 20
Plant response rating, Surinam Grass [6, 19]: 10
Plant response rating, Surinam Grass [6, 20]: 25
Plant response rating, Surinam Grass [6, 21]: 65
Plant response rating, Surinam Grass [6, 16]: 10
Plant response rating, Surinam Grass [6, 17]: 10
Plant response rating, Surinam Grass [6, 18]: 45
Surinam Grass plant response rating ([6]; Preemergence, 250 g ai/ha): 100
Plant response rating, Cocklebur [7, 17]: 75
Cocklebur plant response rating ([7]; Preemergence, 250 g ai/ha): 85
Plant response rating, Foxtail, Giant [8, 19]: 70
Plant response rating, Foxtail, Giant [8, 20]: 70
Plant response rating, Foxtail, Giant [8, 14]: 80
Plant response rating, Foxtail, Giant [8, 21]: 95
Plant response rating, Foxtail, Giant [8, 16]: 0
Plant response rating, Foxtail, Giant [8, 17]: 0
Plant response rating, Foxtail, Giant [8, 18]: 10
Foxtail, Giant plant response rating ([8]; Preemergence, 250 g ai/ha): 80
Plant response rating, Corn (corn (Zea mays); [19]): 10
Plant response rating, Corn (corn (Zea mays); [20]): 60
Plant response rating, Corn (corn (Zea mays); [14]): 75
Plant response rating, Corn (corn (Zea mays); [21]): 80
Plant response rating, Corn (corn (Zea mays); [16]): 0
Plant response rating, Corn (corn (Zea mays); [17]): 0
Plant response rating, Corn (corn (Zea mays); [18]): 0
Corn plant response rating (corn (Zea mays); Preemergence, 250 g ai/ha): 0
Plant response rating, Morningglory [9, 19]: 60
Plant response rating, Morningglory [9, 20]: 85
Plant response rating, Morningglory [9, 14]: 100
Plant response rating, Morningglory [9, 21]: 100
Plant response rating, Morningglory [9, 16]: 0
Plant response rating, Morningglory [9, 17]: 0
Plant response rating, Morningglory [9, 18]: 15
Morningglory plant response rating ([9]; Preemergence, 250 g ai/ha): 100
Plant response rating, Pigweed [10, 19]: 100
Plant response rating, Pigweed [10, 20]: 100
Plant response rating, Pigweed [10, 21]: 100
Plant response rating, Pigweed [10, 16]: 100
Plant response rating, Pigweed [10, 17]: 100
Plant response rating, Pigweed [10, 18]: 100
Pigweed plant response rating ([10]; Preemergence, 250 g ai/ha): 100
Plant response rating, Ryegrass, Italian [11, 19]: 20
Plant response rating, Ryegrass, Italian [11, 20]: 25
Plant response rating, Ryegrass, Italian [11, 21]: 40
Plant response rating, Ryegrass, Italian [11, 16]: 0
Plant response rating, Ryegrass, Italian [11, 17]: 0
Plant response rating, Ryegrass, Italian [11, 18]: 5
Ryegrass, Italian plant response rating ([11]; Preemergence, 250 g ai/ha): 10
Plant response rating, Oat, Wild (wild oat (Avena fatua); [19]): 50
Plant response rating, Oat, Wild (wild oat (Avena fatua); [20]): 70
Plant response rating, Oat, Wild (wild oat (Avena fatua); [21]): 85
Plant response rating, Oat, Wild (wild oat (Avena fatua); [16]): 0
Plant response rating, Oat, Wild (wild oat (Avena fatua); [17]): 0
Plant response rating, Oat, Wild (wild oat (Avena fatua); [18]): 5
Oat, Wild plant response rating (wild oat (Avena fatua); Preemergence, 250 g ai/ha): 40
